Reference: US8709741B2, “Methods of diagnosing a plasmodium infection” (priority 2009, dated 2014)
Where two headings read alike, the source gives them in different places.

Columns and labels:
Assay type in all cases: cell-based
P. falciparum = assay: Involvement of enzymatic activity in GX sPLA2-induced inhibition of parasite growth (schizont-enriched culture, 24 h); conditions: 37.5 μM LY329722 plus 50 nM GX sPLA2, 24 h
Experimental: Parasitaemia (%) at t 0 h and t 24 h were determined from Diff Quick-stained smears. Y axis states increase of parasitaemia (A parasitaemia (%)), expressed as parasitaemia at t 24 h-parasitaemia at t 0 h;
Parasitaemia (%) before incubation, and after 24 h of incubation, was determined from Diff Quick-stained smears. Parasite growth was expressed as the percent delta of parasitaemia, using the following formula:
ΔP=[(Px−P0)/(P100−P0)]×100; where ΔP is in percent, P0 is the parasitaemia (%) in the initial culture, P100 is the parasitaemia (%) after 24 h in normal culture conditions, and Px is the parasitaemia (%) after 24 h in experimental conditions.

[1] = tested on: P. falciparum FcB1/Colombian strain; assay: Anti-Plasmodium activity assay (dose-response, 3H-hypoxanthine incorporation), culture with human serum; conditions: read-out: IC50 on Plasmodium intra-erythrocytic development
Experimental: The chloroquine-resistant P. falciparum FcB1/Colombian strain was used. Under the following culture conditions, the in vitro life cycle of the FcB1 strain was 48 hours. Cultures were grown in complete medium consisting of RPMI 1640 (Life Technologies, Inc.) supplemented with 11 mM glucose, 27.5 mM NaHCO3, 100 UI/mL penicillin, 100 μg/mL streptomycin, adjusted to pH 7.4 before addition of heat-inactivated human serum (A+ blood group, 8% final) or Albumax II® (0.5% final), according to the procedure of Trager and Jensen (1976). Parasites were routinely grown at 37° C. in human A+ RBCs (Red blood cells) at a 2% haematocrit and 2-6% parasitemia, in a 3% CO2, 6% O2 and 91% N2 atmosphere. Semi-synchronized cultures were established by Sorbitol (Lambros) treatment. Highly synchronized cultures (4 hour-window synchronization) were obtained by successive Plamion (Pasvol) and Sorbitol treatments. Parasitaemia and stage distribution were determined by optical examination of Diff-Quick stained culture smears. Parasitaemia (expressed in percent) is hundred times the number of parasitized erythrocytes divided by the total number of erythrocytes.
Dried preparations of the purified recombinant human sPLA2s were re-suspended at high concentration (usually 50 μM) in RPMI 0.05% BSA, and then tested individually for their capacity to inhibit the in vitro intra-erythrocytic development of P. falciparum. Dose-response assays based on ^3H-hypoxanthine incorporation by growing parasites were performed as in Guillaume et al. (2004). Radioactivity was measured with a 1450 Microbeta counter (Wallac, Perkin Elmer). Percentage of growth inhibition was calculated from the parasite-associated radioactivity compared with control without sPLA2. Values for the IC50 were determined from dose-response curves.

[2] = tested on: P. falciparum FcB1 strain; assay: In vitro chemosensitizing activity of PAF on hGX sPLA2 (response modification index); conditions: fixed sub-inhibitory PAF 25 μM, 37.5 μM and 50 μM
Experimental: The effects of serial concentrations of PAF (platelet-activating factor) on the susceptibility of the P. falciparum FcB1 strain to GX sPLA2 were assessed in vitro. A P. falciparum culture (1% parasitaemia, 2% haematocrit) was incubated in a 96-well microplate with decreasing concentrations of the recombinant GX sPLA2 in the presence of a fixed, sub-inhibitory concentration of PAF. The response modification index (RMI) as a function of PAF concentration is represented. RMI is the ratio of the 50% inhibitory concentrations (IC50) for GX sPLA2 plus the concentration of PAF, and GX sPLA2 alone. An RMI of 1.0 represents no change in the IC50 for GX sPLA2 when combined with PAF. The RMI values<1.0 represent the degree of potentiation or synergism.
Quantitative analysis of the increased activity of recombinant hGX sPLA2 when combined with PAF was done by comparing concentration-response curves for hGX sPLA2 alone and in the presence of several fixed, sub-inhibitory concentrations of PAF. Effects of each fixed concentration of PAF on the response of the parasites (IC50) to hGX sPLA2 were expressed as the response modification index (RMI) (Oduola et al., 1998). The RMI was calculated by the following formula: RMI=IC50(A,B)/IC50(A), where drug A is hGX sPLA2 and B is PAF. An RMI of 1.0 represents no change in the IC50 for the recombinant hGX sPLA2 combined with PAF. […]

| Compound | effect on GX sPLA2-induced inhibition of parasite growth (P. falciparum) | IC50 ([1]; serum PAF-AH inhibited by Pefabloc) [µM] | IC50 ([1]; standard culture conditions) [µM] | response modification index (RMI) = IC50(GX sPLA2 + PAF)/IC50(GX sPLA2) [2] |
| --- | --- | --- | --- | --- |
| CCc1c(C(=O)C(N)=O)c2c(OCC(=O)O)cc(C)cc2n1Cc1ccccc1 [LY329722, sodium [3-aminooxalyl-1-benzyl-2-ethyl-6-methyl-1H-indol-4-yloxy]-acetic acid] | Inhibition of parasite growth was removed | – | – | – |
| platelet-activating factor [PAF] | – | 95 ± 2.8 | 82 ± 1.2 | < 1 |
